Patent US7666836B2, “Method for the therapeutic management of endometriosis” (priority 1999, dated 2010)
Non-standard residues stand in square brackets, D forms with d. Residues, ends and D or L forms follow the SMILES beside them. dPhe(4-Cl) = N[C@H](Cc1ccc(Cl)cc1)C(=O)O; d2Nal = N[C@H](Cc1ccc2ccccc2c1)C(=O)O; dCit = NC(=O)NCCC[C@@H](N)C(=O)O; d3Pal = N[C@H](Cc1cccnc1)C(=O)O

Tests used:
[1] = tested on: patients with confirmed endometriosis; assay: weekly Cetrorelix acetate treatment of nine patients with confirmed endometriosis (FIG. 1); format: in vivo, human; conditions: 3 mg s.c. weekly for 8 weeks; for hot flushes or other (estradiol) withdrawal symptoms: patients with endometriosis
estradiol serum levels = estradiol serum levels after weekly administration of cetrorelix (FIG. 2); format: in vivo
Excerpt: […] The estradiol serum levels are between about 35-80 pg/ml, preferably between about 45-75 pg/ml, more preferably between about 50-75 pg/ml.

[2] = tested on: patients with endometriosis; assay: weekly Cetrotide s.c. over eight weeks in endometriosis patients with symptomatic pain; format: in vivo, human; conditions: 3 mg s.c. per week over eight weeks
Method: Aim of the medicinal therapy of patients with endometriosis with symptomatic pain is to obtain a treatment without side effects, especially avoiding the negative effects of estrogen suppression and which is long-lasting after finishing therapy. The specific pharmacological mode of action of LHRH antagonists allows new possibilities for treatment of endometriosis.
The weekly administration of an adequate dose of an LHRH antagonist, e.g. 3 mg Cetrotide® s.c./per week over a period of eight weeks leads to a controlled suppression of estrogen secretion so that serum concentrations between about 35 pg/ml and about 80 pg/ml, preferably between about 45-75 pg/ml, more preferably between about 50-75 pg/ml are obtained. […] Also the development of osteoporosis can be avoided.

[3] = tested on: patients with endometriosis; conditions: 3 mg s.c. per week over eight weeks; stages rAFS I-II; cited from earlier work

## CC(=O)N[C@H](Cc1ccc2ccccc2c1)C(=O)N[C@H](Cc1ccc(Cl)cc1)C(=O)N[C@H](Cc1cccnc1)C(=O)N[C@@H](CO)C(=O)N[C@@H](Cc1ccc(O)cc1)C(=O)N[C@H](CCCNC(N)=O)C(=O)N[C@@H](CC(C)C)C(=O)N[C@@H](CCCNC(=N)N)C(=O)N1CCC[C@H]1C(=O)N[C@H](C)C(N)=O [Cetrorelix acetate] (Ac-[d2Nal][dPhe(4-Cl)][d3Pal]SY[dCit]LRP[dA]-NH2)
[1]
  proliferation of the endometrium at the end of treatment (histological biopsies): no proliferation of the endometrium
  hot flushes or other (estradiol) withdrawal symptoms: avoiding any hot flushes or other withdrawal symptoms
[1]; listed as Cetrorelix
  proliferation of the endometrium at the end of treatment (histological biopsies): without proliferation of the endometrium
  hot flushes or other (estradiol) withdrawal symptoms: without any signs of estradiol withdrawal symptoms
[1]; nine patients
  ovarian cyst formation: No ovarian cyst formation occurred
  progress of the disease confirmed by 2nd look laparascopy: without any progress of the disease
Estradiol serum levels; weekly dose of 1 mg once per week
  estradiol serum levels (FIG. 2): 35 to 80 pg/mL
Estradiol serum levels; weekly dose of 3 mg once per week
  estradiol serum levels (FIG. 2): 35 to 80 pg/mL
[2]; all stages of the disease (rAFS I-IV)
  symptomatic pain: effectively suppressed
[2]; serum concentration range about 35-80 pg/ml
  vegetative symptoms: no vegetative symptoms arise
[3]
  clinical regression of the disease (decrease of the implantation area): clinical regression of the disease
